From ChEMBL document CHEMBL1129730, “Mechanistic studies on the inactivation of papain by epoxysuccinyl inhibitors” (J Med Chem, 1996)
Values joined by “and” are separate entries in the source; they are usually repeats but may differ in a detail not shown here. Identical values can stand only once.

Key:
[1] = molecular target: T1, Papain (Carica papaya, UniProt P00784); assay: Kinetic constant Apparent binding constant (Ki`) for the inhibition of papain conducted in 0.1 M phosphate, pH 6.8, at 30 degree C
T1 sequence (P00784 whole entry): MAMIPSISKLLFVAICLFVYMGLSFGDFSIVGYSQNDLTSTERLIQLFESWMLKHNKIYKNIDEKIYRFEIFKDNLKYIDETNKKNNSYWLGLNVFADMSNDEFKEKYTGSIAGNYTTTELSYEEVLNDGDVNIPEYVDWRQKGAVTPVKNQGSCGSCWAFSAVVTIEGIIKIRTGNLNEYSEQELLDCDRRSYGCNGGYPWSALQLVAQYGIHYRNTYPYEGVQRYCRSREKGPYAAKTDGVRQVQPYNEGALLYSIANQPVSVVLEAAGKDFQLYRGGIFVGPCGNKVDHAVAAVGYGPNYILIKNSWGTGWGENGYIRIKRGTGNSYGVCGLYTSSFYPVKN

[2] = molecular target: T2, Papain (Carica papaya) (UniProt P00784); assay: Kinetic constant First order rate of inactivation (K3) for the inhibition of papain conducted in 0.1 M phosphate, pH 6.8, at 30 degree C
T2 sequence (whole entry): T1 sequence (P00784 whole entry)

[3] = molecular target: T2, Papain (Carica papaya); assay: Inhibition of papain depend on Acid dissociation constant of the protein Papain

With `CC(C)CCNC(=O)[C@H](CC(C)C)NC(=O)[C@H]1O[C@@H]1CO` the Ki [1] was 4400 µM and the k3 [2] was 0.019 s⁻¹.
For `CCOC(=O)[C@H]1O[C@@H]1C(=O)N[C@@H](CC(C)C)C(=O)NCCC(C)C` [ALOXISTATIN], the Ki [1] was 52 µM and the k3 [2] was 0.059 s⁻¹.
With `CC(C)CCNC(=O)[C@H](CC(C)C)NC(=O)[C@H]1O[C@@H]1C(=O)O` [E-64C] the pKa [3] was 3.93 and 4.09, the Ki [1] was 2.4 µM and the k3 [2] was 0.71 s⁻¹.
`CC(C)CCNC(=O)[C@H](CC(C)C)NC(=O)[C@H]1O[C@@H]1C(=O)NO` showed a Ki [1] of 6.6 µM and a k3 [2] of 0.67 s⁻¹.
For `CC(C)CCNC(=O)[C@H](CC(C)C)NC(=O)[C@H]1O[C@@H]1C(N)=O`, the Ki [1] was 51 µM and the k3 [2] was 0.35 s⁻¹.
With `CC(=O)[C@H]1O[C@@H]1C(=O)N[C@@H](CC(C)C)C(=O)NCCC(C)C` the Ki [1] was 170 µM and the k3 [2] was 0.47 s⁻¹.
